Experimental data from patent US20080213404A1, “Hif Modulating Compounds and Methods of Use Thereof” (priority 2005, published 2008).
Structures can show the parent of a compound that is named as a salt. Where two headings read alike, the source gives them in different places.

Assays:
TNF-α = TNF-α ELISA of conditioned macrophage supernatants after GAS; format: cell-based, mouse; conditions: WT, HIF-1α and vHL-deficient macrophages, 1 hour after antibiotic treatment
Method: FIG. 7 is a series of graphs illustrating HIF-1 and vHL regulate TNF-production. (A) Total RNA from WT, HIF-1−/−, and vHL−/− bone marrow-derived macrophages infected with GAS were isolated 3 hours after antibiotic treatment. TNF-mRNA was quantified by RT-PCR. WT, nonstimulated macrophages were arbitrarily set to 1 unit following normalization to ribosomal RNA levels. (B) inhibition of iNOS decreases TNF-production. BM-derived macrophages were cultured for 1 hour after antibiotic treatment. Conditioned supernatant was harvested and TNF-protein analyzed by ELISA (eBiosciences). Statistical analyses were performed using unpaired Student's t test. ***P<0.001.
We next examined the expression pattern of TNF-α, a cytokine involved in the augmentation of inflammatory responses to microbial infection. Indeed, development of GAS-necrotizing fasciitis has been reported as a complication of anti-TNF-α therapy (37). […] Whereas basal levels of TNF-α protein expression were similar in WT, HIF-1α, and vHL-null macrophages, loss of HIF-1α also strongly depressed the rapid secretion of TNF-α protein in response to GAS (FIG. 7B).

[1] = tested on: intracellular killing of GAS by macrophages; test: Bacterial killing assay (antibiotic protection): intracellular killing of GAS by macrophages; format: cell-based, mouse; conditions: for intracellular killing of GAS by WT macrophages: preincubation 5 hours, L-Mim 800 μM, OH-pyridone 150 μM, desferrioxamine mesylate 100 μM, CoCl2 100 μM
Method: FIG. 2 is a series of graphs showing HIF-1 regulates bactericidal activity of myeloid cells. (A) Intracellular killing of GAS by WT, HIF-1-null, or vHL-null macrophages. BM-derived macrophages were inoculated with GAS at an MOI equal to 2.5 and cultured under normoxic (white bars) or hypoxic (0.1%; black bars) conditions for 1 hour after antibiotic treatment. Statistical analyses were performed using unpaired Student's t test. *P<0.05; **P<0.01. (B) Loss of HIF-1 in macrophages decreases intracellular killing of GAS and of P. aeruginosa. WT (black bars) or HIF-1-null (white bars) BM-derived macrophages were incubated with bacteria for 1 hour before antibiotics were added. Intracellular killing was analyzed by determination of viable CFUs in macrophage lysates at the specified time points after bacterial uptake. Experiments were performed in triplicate. […] Experiment shown is representative of 3 repeated studies. (C) Loss of vHL in BM-derived macrophages increases intracellular killing of GAS and of P. aeruginosa. Experiments were performed in triplicate and are representative of 3 repeated studies. […] (D) Pharmacologic agonists of HIF-1 increase myeloid cell bactericidal activity. Preincubation (5 hours) with desferrioxamine mesylate (DFO), CoCl2, OH-pyridone, or Mim increased the intracellular killing capacity of WT macrophages against GAS. ***P<0.001.
To assess the functional consequences of HIF-1α activation, we used an antibiotic protection assay to calculate intracellular killing of GAS by WT macrophages compared with killing by those derived from the bone marrow of HIF-1α-lysMcre mice (11). Here, targeted deletion of the HIF-1α gene has been created via crosses into a background of cre expression driven by the lysozyme M promoter (lysMcre), allowing specific deletion of the transcription factor in the myeloid lineage (11). […] Macrophage killing of the Gram-negative bacterium P. aeruginosa was likewise impaired upon deletion of HIF-1α (FIG. 2B).
Finally, we treated WT macrophages with a number of known pharmacologic inducers of HIF-1α that each act directly or indirectly to inhibit prolyl hydroxylase targeting of HIF-1α for ubiquitination. These included the iron chelator desferrioxamine, CoCl2, L-Mim, and 3-hydroxy-1,2-dimethyl-4(1H)-pyridone (OH-pyridone) (13). The addition of each of these agents increased intracellular killing of GAS by WT macrophages (FIG. 2D).
Bacterial killing assays. GAS were grown to logarithmic phase in THB to OD600=1×10^8 cfu/ml. Bacteria were added to macrophages at an MOI of 2.5 bacteria/cell and intracellular killing assessed using an antibiotic protection assay (11, 53) or, alternatively, total cell-associated bacteria measured by vigorous washing with PBS×3 to remove nonadherent bacteria. At the end of the assay, total cell lysate was plated on THB agar for enumeration of CFU. […] To assess macrophage viability, the monolayers were washed with PBS and incubated with 0.04% Trypan blue for 10 minutes at 37° C. As specified in the FIG. 2 legend and in Results, macrophages were preincubated with L-Mim (800 μM), OH-pyridone (150 μM), desferrioxamine mesylate (100 μM), or CoCl2 (100 μM) for 5 hours prior to the killing assay; each drug level was known to be sufficient for HIF-1 induction (13). Absence of bacterial inhibition was tested by incubating the drugs at the above concentrations with GAS (˜105) at 37° C. for 1-24 hours. Mouse model of GAS infection.

HIF-1α = test: Western blot of HIF-1α in macrophages exposed to GAS; format: cell-based, mouse; conditions: WT macrophages, normalized to β-actin
Method: (§1) FIG. 6 provides graphs showing HIF-1 and vHL regulate NO production. (A) Total RNA from WT, HIF-1−/−, and vHL−/− bone marrow-derived macrophages infected with GAS isolated 3 hours after antibiotic treatment. iNOS mRNA was quantified by RT-PCR. WT, nonstimulated macrophages were arbitrarily set to 1 unit following normalization to ribosomal RNA levels. (B) NO production under GAS stimulation ±1.5 mM AG ([…]; Calbiochem). BM-derived macrophages were cultured for 20 hours, conditioned supernatant collected, and NO […] levels measured by the Griess assay. (C) Mim enhances iNOS expression of WT macrophages stimulated by GAS. Total RNA from WT and HIF-1-null BM-derived macrophages infected with GAS±Mim isolated 3 hours after antibiotic treatment. iNOS mRNA was quantified by RT-PCR. WT, noninfected macrophages were arbitrarily set to 1 unit following normalization to ribosomal RNA levels. Statistical analyses performed by unpaired Student's t test. **P<0.01; ***P<0.001. […]
Peritoneal neutrophils or bone marrow-derived macrophages inoculated with GAS were harvested and washed with PBS, and proteins were extracted with HTAB or RIPA buffers. Protein concentration was calculated using the Bio-Rad assay (Bio-Rad Laboratories). […] Immunoreactive proteins were detected using the ECL chemiluminescent system (Amersham Biosciences).

NO production = test: Nitrite determination (Griess assay) in macrophage supernatants under GAS stimulation; format: cell-based, mouse; conditions: 1.5 mM AG; macrophages cultured 20 hours
Method: as §1
The concentration of nitrite (NO2-), the stable oxidized derivative of NO, was determined in 100-μl aliquots of cell culture supernatants transferred to 96-well plates. Essentially, 100 μl of Griess reagent (1% sulfanilamide, 0.1% naphthylene diamine dihydrochloride, 2% H3PO4) was added per well, and the absorbances were measured at 540 nm in a microplate reader. […]

[2] = tested on: HIF-1α-dependant transcription (HRE-luciferase reporter); test: HRE-luciferase reporter assay in BM-derived macrophages of HRE-luciferase transgenic mice; format: cell-based, mouse; conditions: 18 hours; L-Mim 800 μM, desferrioxamine mesylate 150 μM, CoCl2 150 μM
Method: (C) HRE-luciferase BM-derived macrophages were incubated either with GAS or heat-inactivated GAS at an MOI equal to 5-10 under hypoxia (1%) or with the addition of mimosine (800 μM), desferrioxamine mesylate (150 μM), or CoCl2 (150 μM) for 18 hours.
We measured HIF-1α-dependant transcription in macrophages derived from HRE-luciferase transgenic mice, which contain a luciferase reporter gene driven by 6 consecutive specific HRE sequences.
Macrophages were derived from the marrow of femurs and tibiae of transgenic HRE-luciferase mice as described above. The luciferase reporter gene in these mice is driven by 6 specific HRE sequences. Cells were incubated with GAS or heat-inactivated GAS for 18 hours. […] Cells were then washed out with PBS, and luciferase assay was performed by using the Bright-Glo Luciferase Assay kit (Promega Corp.). Luciferase activities were measured using a luminometer.

[3] = tested on: vincomycin-resistant Enterococcus species; conditions: freshly isolated human neutrophils
Staphylococcus aureus [4] = test: Bactericidal capacity of freshly isolated human blood; format: cell-based
iNOS = iNOS mRNA by RT-PCR in BM-derived macrophages infected with GAS; format: cell-based, mouse; conditions: for expression of iNOS mRNA: WT macrophages infected with GAS, RNA isolated 3 hours after antibiotic treatment
Method: (A) Total RNA from WT, HIF-1−/−, and vHL−/− bone marrow-derived macrophages infected with GAS isolated 3 hours after antibiotic treatment. iNOS mRNA was quantified by RT-PCR. WT, nonstimulated macrophages were arbitrarily set to 1 unit following normalization to ribosomal RNA levels. […] Total RNA from WT and HIF-1-null BM-derived macrophages infected with GAS±Mim isolated 3 hours after antibiotic treatment. iNOS mRNA was quantified by RT-PCR. WT, noninfected macrophages were arbitrarily set to 1 unit following normalization to ribosomal RNA levels. Statistical analyses performed by unpaired Student's t test. **P<0.01; ***P<0.001.
First-strand synthesis was obtained from 1 μg of total RNA isolated with Trizol reagent (Molecular Research Center Inc.) by the SuperScript system (Invitrogen Corp.), employing random primers.

Staphylococcus aureus [5] = test: Bactericidal capacity of freshly isolated human neutrophils against S. aureus; format: cell-based
[6] = tested on: vincomycin-resistant Enterococcus species; conditions: cultured human monocytic cells
Staphylococcus aureus [7] = test: Bactericidal capacity of cultured human monocytic cells against S. aureus; format: cell-based

Q: With `Cc1ccc(S(=O)(=O)O)cc1.NNC(N)=NO` [AG, 1-amino-2-hydroxyguanidine, p-toluenesulfate] as the molecule, how does the “TNF-α protein in conditioned supernatants” value (TNF-α) read?
A: The value was “reduced amounts”.

Q: What about the “bactericidal activity of HIF-1α-null macrophages” value ([1]; HIF-1α-null macrophages, presence of iNOS inhibitor) of the same molecule?
A: The value was “did not further suppress”.

Q: What about the “bactericidal activity of WT macrophages” value ([1]; WT macrophages, presence of iNOS inhibitor) of the same molecule?
A: The value was “inhibited”.

Q: What about the “GAS-induced increase of HIF-1α levels” value (HIF-1α) of the same molecule?
A: Its value is “blocked”.

Q: What about the “production of NO in response to GAS” value (NO production) of the same molecule?
A: Its value is “significantly inhibited”.

Q: Which “intracellular killing of GAS by WT macrophages” value (“intracellular killing of GAS” for short) [1] does the source give for `[Cl][Co][Cl]` [CoCl2, cobalt chloride] here?
A: The value was “increased”.

Q: What about the “increase in luciferase reporter activity” value [2] of the same molecule?
A: The value was 3 fold.

Q: What does the source list for `N[C@@H](Cn1ccc(=O)c(O)c1)C(=O)O` [L-Mim, 3-Hydroxy-4-oxo-1(4H)-pyridinealanine]?
A: bactericidal capacity against vincomycin-resistant Enterococcus species [3]: increase; intracellular killing of GAS by WT macrophages [1]: increased; bactericidal capacity against Staphylococcus aureus (Staphylococcus aureus [4]): increase; increased expression of iNOS mRNA (iNOS; HIF-1α-null macrophages infected with GAS): very low; expression of iNOS mRNA (iNOS): greatly increased; expression of iNOS mRNA (iNOS; listed as Mim): enhances; bactericidal capacity against Staphylococcus aureus (Staphylococcus aureus [5]): increase; bactericidal capacity against vincomycin-resistant Enterococcus species [6]: increase; bactericidal capacity against Staphylococcus aureus (Staphylococcus aureus [7]): increase

Q: `Cc1c(O)c(=O)ccn1C` [OH-pyridone, 3-hydroxy-1,2-dimethyl-4(1H)-pyridone] was tested. Which “intracellular killing of GAS” value [1] did it give?
A: The value was “increased”.

Q: For `CC(=O)N(O)CCCCCNC(=O)CCC(=O)N(O)CCCCCNC(=O)CCC(=O)N(O)CCCCCN` [desferrioxamine mesylate], which “intracellular killing of GAS” value [1] is on record?
A: The value was “increased”.

Q: And the “increase in luciferase reporter activity” value [2]?
A: The value was 3 fold.
